Data as given in patent publication US8288548B2, “Oxazolo[5-4-b]pyridin-5-yl compounds” (Eli Lilly and Company, priority 2010, dated 2012).

What was measured:
p38 MAP kinase = test: In vivo inhibition of p38 MAP kinase in U87MG tumor-bearing mice (p-MAPKAPK2 in tumor lysates); parameters: species or system athymic nude mice; conditions: oral, 2 hours after dosing
Protocol: A murine xenograft model utilizing the human tumor cell line, U87MG, is used for assessment of inhibition of p38 MAP kinase in tumors
Female athymic nude mice (24-26 g, Harlan) are injected subcutaneously in the rear flank with 5×10^6 U87MG cells per animal Cells are injected in a 0.2 mL volume with a 1:1 mixture of cell culture media and BD […]™ matrix. 7 days after implant tumors are measured using a caliper and the data recorded. Tumors are measured twice weekly thereafter and the tumor size is recorded. When tumors reach an average volume of approximately 250 mm^3 (usually 10-15 days after implant), animals are randomized into groups of 8-10 for treatment. Animals are then dosed orally with 0.2 mL vehicle (1% HEC, 0.25% TWEEN® 80, 0.05% antifoam) alone or vehicle containing test compound. 2 Hours after dosing, animals are euthanized. […]
p-MAPKAPK2 levels in the tumor lysates are determined using a Mesoscale Discovery (MSD) capture ELISA kit (2 Phospho-MAPKAPK-2 (Thr334)). The concentration of protein in the lysates is determined using a BioRad DC protein assay kit (BioRad). […] Following incubation with the detection antibody, the MSD plate is washed followed by addition of MSD read buffer. After passage of current over the electrode, electro-chemiluminescence results in the generation of light that is quantified using the MSD Sector 6000 instrument. […]

human p38α MAP kinase = human p38α MAP kinase (Homo sapiens, UniProt Q16539); test: Inhibition of p38α MAP kinase enzyme activity (33P-ATP filter assay); assay type: biochemical; conditions: 100 μM ATP, 11.8 nM p38α MAP kinase
Protocol: The kinase reaction buffer is prepared as a stock solution containing 1440 μL of 1 M 4-(2-hydroxyethyl)-1-piperazineethanesulfonic acid (HEPES) pH 7.5, 240 μL of 1 M MgCl2, 72 μL of 1 M dithiothreitol (DTT), 25 μL of 10% TRITON® X-100, 43223 μL of H2O. The substrate mix is prepared by combining the following: 2775 μL kinase reaction buffer, 75.0 μL adenosine triphosphate (ATP) at 10 mM, 270 μL EGFR peptide (Upstate Biotechnology/Millipore) at 4 mM (9.17 mg/mL) and 12.5 μL ^33P-ATP. The p38 MAP kinase enzyme stock solution is prepared by diluting 0.1 mg/mL solution of purified human p38α MAP kinase in 3000 μL of reaction buffer. Stock solutions of test compounds are generated by dissolving the compounds in 100% dimethyl sulfoxide (DMSO) at 10 mM. 100 μM stock dilution plates are generated by diluting 2 μL of 10 mM stock in 198 μL of 20% DMSO. 1:3 dilutions in 20% DMSO are generated from the 100 μM stock using a Tecan liquid handler.
For the kinase assay, 5 μL of diluted compound is transferred to the reaction plate, followed by 10 μL of enzyme stock solution (added using a MULTIDROP® liquid dispenser). […] Following the washing steps, 80 μL of MICROSCINT™20 is added and the radioactivity counted in a Trilux MICROBETA®. IC50 values are calculated using Activity Base software (IDBS).

Chain of human p38α MAP kinase (Q16539 whole entry): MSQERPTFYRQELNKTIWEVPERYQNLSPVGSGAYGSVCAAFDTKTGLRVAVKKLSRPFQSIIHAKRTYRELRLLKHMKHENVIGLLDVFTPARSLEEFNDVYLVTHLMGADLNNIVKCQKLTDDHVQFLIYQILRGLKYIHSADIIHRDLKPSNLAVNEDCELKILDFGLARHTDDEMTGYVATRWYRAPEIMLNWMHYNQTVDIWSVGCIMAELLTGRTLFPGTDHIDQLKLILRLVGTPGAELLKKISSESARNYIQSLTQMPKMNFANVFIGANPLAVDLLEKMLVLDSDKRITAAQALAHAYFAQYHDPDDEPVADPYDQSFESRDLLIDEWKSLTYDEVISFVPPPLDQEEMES

## COCC[C@H](C)Nc1nc2ccc(-c3nc(C(C)(C)CO)[nH]c3-c3ccc(F)cc3F)nc2o1 [Example 1, 2-[5-(2,4-Difluorophenyl)-4-[2-[[(1S)-3-methoxy-1-methyl-propyl]amino]oxazolo[5,4-b]pyridin-5-yl]-1H-imidazol-2-yl]-2-methyl-propan-1-ol]
p38 MAP kinase
  TED70 for p38 MAP kinase target inhibition in tumors: 2.9 mg/kg
p38 MAP kinase; U87MG tumors
  TEC70: 31.3 ng/mL
Human p38α MAP kinase
  IC50: 3 nM
